Source: patent publication US6897244B2, “Dihydronootkatone and tetrahydronootkatone as repellents to arthropods” (Board of Supervisors of Louisiana State University and …, priority 2002, dated 2005)
Entries after “also recorded” stand apart in the source; their conditions may differ.

Columns and labels:
[1] = system: biting midges (family Ceratopogonidae, genus Culicoides); experiment: Field test of 5% solution applied to faces against biting midges in a marsh; format: in vivo; details: 5% solution in 70% isopropyl alcohol applied to faces of two volunteers
Protocol: To test the repellence of tetrahydronootkatone on biting midges (family Ceratopogonidae, genus Culicoides), tetrahydronootkatone was dissolved in 70% isopropyl alcohol to a final concentration of 5%. This solution was used to topically apply to the faces of two adult male volunteers. […] The six males went into a southern Louisiana marsh, an area known for biting midges.

[2] = system: salt marsh mosquitoes, Aedes vexans; experiment: Mosquito bites on arm treated topically with 5% solution, placed in mosquito cage; format: in vivo; details: for Number of Mosquito Bites in a 2 min Period: arm treated with 5 ml of 5% solution
Protocol: To test the repellence of tetrahydronootkatone on mosquitos, tetrahydronootkatone was dissolved in 70% isopropyl alcohol to a final concentration of 5%. This solution was used to topically apply to the arms of two male volunteers. Each volunteer cleaned each arm thoroughly with soap and water, and then wiped down each arm with 70% isopropyl alcohol. The right arm of each volunteer was treated with 5 ml of the 5% tetrahydronootkatone solution. The left arm served as a control. To test for mosquito repellence, each arm of a single volunteer was placed into a cage of freshly collected mosquitoes, about 100 mosquitos per cage. The mosquitoes were salt marsh mosquitoes, Aedes […]. After 2 min, the number of mosquito bites on each arm were counted. Tests were run at 5 min, 1 hr, 2 hr, and 3 hr after the initial application of tetrahydronootkatone.

[3] = system: Formosan subterranean termites; experiment: Petri dish treated/untreated sand bioassay for repelling activity against termites; format: in vivo, Coptotermes formosanus; set-up: key to percent of termites on untreated sand vs expected value of 50% (Chi-Square, p≦0.05): “−” indicates the test was not significantly different from the expected value; “+” indicates the test was significantly different from the expected value
Protocol: A carton nest (colony A) of Formosan subterranean termites was collected in Algiers, Louisiana in November 1997, and held in 250-liter cans. The cans were filled with pine as a food source, and kept at a temperature range of 24-26° C. Moistened corrugated cardboard rolls were used to retrieve termites from the cans. Once the termites migrated to the cardboard rolls, they were gently knocked from the cardboard rolls into clean rectangular plastic trays (40 cm×50 cm). Retrieved termites were isolated from debris by allowing them to cling to sheets of moistened paper towels. The average weight of each termite was 1.21 mg.
To test for effectiveness of nootkatone, 1,10-dihydronootkatone and tetrahydronootkatone in repelling termites, a bioassay was conducted using Petri dishes (5 cm diameter and 1 cm height). To ensure adequate moisture for the termites, 1 ml of a hot agar solution (1.5% in H2O) was spread on the bottom of the Petri dish. After the agar cooled, sand that was treated as described below was spread on the bottom of the Petri dish. For the treated sand, purified 1,10-dihydronootkatone or tetrahydronootkatone were dissolved in 2 ml ethanol, and then diluted to achieve final concentrations of 1, 2, 5, 12.5, 25, 50, and 100 μg/g sand. The solution was mixed with 1 g sand that had been autoclaved and cooled. The control sand was autoclaved sand with only 200 μl ethanol added. One half of the surfaces in the Petri dishes were covered with 1 g treated sand, and the other half with 1 g untreated sand.
The prepared Petri dishes were then used to evaluate the repelling activity against Formosan subterranean termites. Ten worker termites were added to each Petri dish, and the dishes were covered to eliminate light. Five replicate dishes were tested for each concentration and for the control. Termite position was recorded every 15 min during the first hour of testing by counting the number of termites observed on untreated sand. After the first hour, termite position was recorded each hour for 3 hr.
Differences between the percent of termites on untreated sand and an expected value were statistically analyzed by a Chi-Square analysis, using an expected value of 50% and a significance level of p≦0.05.

Structure (SMILES): CC(C)C1CCC2CC(=O)CC(C)C2(C)C1 (stereo not drawn) [Tetrahydronootkatone, 1,4,4a,5,6,7,8,10-octahydro-6-isopropl-4,4a-dimethyl-2(1H)-naphthalenone]
- repellence of biting midges [1]: fewer problems with biting midges; also recorded: effective repellent for biting midges
- mosquito repellence ([2]; 5% solution, time periods up to 3 hr after the initial application): effective mosquito repellent
- Number of Mosquito Bites in a 2 min Period ([2]; Volunteer 1, 5 min after application): 0
- Number of Mosquito Bites in a 2 min Period ([2]; Volunteer 1, 1 hr after application): 0
- Number of Mosquito Bites in a 2 min Period ([2]; Volunteer 1, 2 hr after application): 0
- Number of Mosquito Bites in a 2 min Period ([2]; Volunteer 1, 3 hr after application): 0
- Number of Mosquito Bites in a 2 min Period ([2]; Volunteer 2, 5 min after application): 0
- Number of Mosquito Bites in a 2 min Period ([2]; Volunteer 2, 1 hr after application): 0
- Number of Mosquito Bites in a 2 min Period ([2]; Volunteer 2, 2 hr after application): 0
- Number of Mosquito Bites in a 2 min Period ([2]; Volunteer 2, 3 hr after application): 2
- percent of termites on untreated sand vs expected value of 50% (Chi-Square, p≦0.05) ([3]; 1 μg/dish, 0.25 hour): −
- percent of termites on untreated sand vs expected value of 50% (Chi-Square, p≦0.05) ([3]; 1 μg/dish, 0.5 hour): −
- percent of termites on untreated sand vs expected value of 50% (Chi-Square, p≦0.05) ([3]; 1 μg/dish, 0.75 hour): −
- percent of termites on untreated sand vs expected value of 50% (Chi-Square, p≦0.05) ([3]; 1 μg/dish, 1 hour): −
- percent of termites on untreated sand vs expected value of 50% (Chi-Square, p≦0.05) ([3]; 1 μg/dish, 2 hour): −
- percent of termites on untreated sand vs expected value of 50% (Chi-Square, p≦0.05) ([3]; 1 μg/dish, 3 hour): −
- percent of termites on untreated sand vs expected value of 50% (Chi-Square, p≦0.05) ([3]; 2 μg/dish, 0.25 hour): +
- percent of termites on untreated sand vs expected value of 50% (Chi-Square, p≦0.05) ([3]; 2 μg/dish, 0.5 hour): +
- percent of termites on untreated sand vs expected value of 50% (Chi-Square, p≦0.05) ([3]; 2 μg/dish, 0.75 hour): +
- percent of termites on untreated sand vs expected value of 50% (Chi-Square, p≦0.05) ([3]; 2 μg/dish, 1 hour): +
- percent of termites on untreated sand vs expected value of 50% (Chi-Square, p≦0.05) ([3]; 2 μg/dish, 2 hour): +
- percent of termites on untreated sand vs expected value of 50% (Chi-Square, p≦0.05) ([3]; 2 μg/dish, 3 hour): +
- percent of termites on untreated sand vs expected value of 50% (Chi-Square, p≦0.05) ([3]; 5 μg/dish, 0.25 hour): −
- percent of termites on untreated sand vs expected value of 50% (Chi-Square, p≦0.05) ([3]; 5 μg/dish, 0.5 hour): +
- percent of termites on untreated sand vs expected value of 50% (Chi-Square, p≦0.05) ([3]; 5 μg/dish, 0.75 hour): +
- percent of termites on untreated sand vs expected value of 50% (Chi-Square, p≦0.05) ([3]; 5 μg/dish, 1 hour): +
- percent of termites on untreated sand vs expected value of 50% (Chi-Square, p≦0.05) ([3]; 5 μg/dish, 2 hour): +
- percent of termites on untreated sand vs expected value of 50% (Chi-Square, p≦0.05) ([3]; 5 μg/dish, 3 hour): +
- percent of termites on untreated sand vs expected value of 50% (Chi-Square, p≦0.05) ([3]; 12.5 μg/dish, 0.25 hour): +
- percent of termites on untreated sand vs expected value of 50% (Chi-Square, p≦0.05) ([3]; 12.5 μg/dish, 0.5 hour): +
- percent of termites on untreated sand vs expected value of 50% (Chi-Square, p≦0.05) ([3]; 12.5 μg/dish, 0.75 hour): +
- percent of termites on untreated sand vs expected value of 50% (Chi-Square, p≦0.05) ([3]; 12.5 μg/dish, 1 hour): +
- percent of termites on untreated sand vs expected value of 50% (Chi-Square, p≦0.05) ([3]; 12.5 μg/dish, 2 hour): +
- percent of termites on untreated sand vs expected value of 50% (Chi-Square, p≦0.05) ([3]; 12.5 μg/dish, 3 hour): +
- percent of termites on untreated sand vs expected value of 50% (Chi-Square, p≦0.05) ([3]; 25 μg/dish, 0.25 hour): −
- percent of termites on untreated sand vs expected value of 50% (Chi-Square, p≦0.05) ([3]; 25 μg/dish, 0.5 hour): +
- percent of termites on untreated sand vs expected value of 50% (Chi-Square, p≦0.05) ([3]; 25 μg/dish, 0.75 hour): +
- percent of termites on untreated sand vs expected value of 50% (Chi-Square, p≦0.05) ([3]; 25 μg/dish, 1 hour): +
- percent of termites on untreated sand vs expected value of 50% (Chi-Square, p≦0.05) ([3]; 25 μg/dish, 2 hour): +
- percent of termites on untreated sand vs expected value of 50% (Chi-Square, p≦0.05) ([3]; 25 μg/dish, 3 hour): +
- percent of termites on untreated sand vs expected value of 50% (Chi-Square, p≦0.05) ([3]; 50 μg/dish, 0.25 hour): +
- percent of termites on untreated sand vs expected value of 50% (Chi-Square, p≦0.05) ([3]; 50 μg/dish, 0.5 hour): +
- percent of termites on untreated sand vs expected value of 50% (Chi-Square, p≦0.05) ([3]; 50 μg/dish, 0.75 hour): +
- percent of termites on untreated sand vs expected value of 50% (Chi-Square, p≦0.05) ([3]; 50 μg/dish, 1 hour): +
- percent of termites on untreated sand vs expected value of 50% (Chi-Square, p≦0.05) ([3]; 50 μg/dish, 2 hour): +
- percent of termites on untreated sand vs expected value of 50% (Chi-Square, p≦0.05) ([3]; 50 μg/dish, 3 hour): +
- percent of termites on untreated sand vs expected value of 50% (Chi-Square, p≦0.05) ([3]; 100 μg/dish, 0.25 hour): +
- percent of termites on untreated sand vs expected value of 50% (Chi-Square, p≦0.05) ([3]; 100 μg/dish, 0.5 hour): +
- percent of termites on untreated sand vs expected value of 50% (Chi-Square, p≦0.05) ([3]; 100 μg/dish, 0.75 hour): +
- percent of termites on untreated sand vs expected value of 50% (Chi-Square, p≦0.05) ([3]; 100 μg/dish, 1 hour): +
- percent of termites on untreated sand vs expected value of 50% (Chi-Square, p≦0.05) ([3]; 100 μg/dish, 2 hour): +
- percent of termites on untreated sand vs expected value of 50% (Chi-Square, p≦0.05) ([3]; 100 μg/dish, 3 hour): +
- factor by which the effective termite-repellent concentration is lower than that of nootkatone ([3]; relative to nootkatone): 50
- concentration effective as termite repellent ([3]; time periods up to 3 hr): 2 µg
